Source: US8362249B2, “CXCR3 receptor antagonists” (Boehringer Ingelheim International GmbH, priority 2009, dated 2013)

Tests used:
[1] = tested on: LDL receptor knockout model; settings: dosed prophylactically; cited from earlier work
CXCR3 = CXCR3 (Macaca fascicularis, UniProt A0A2K5UV19); assay: functional cellular assay measuring calcium flux in CXCR3 transfected cells (block of CXCR3/IP-10 interaction); assay type: cell-based; settings: IP-10 induced intracellular calcium flux; Cyno-CHO cells stably expressing recombinant CXCR3 and G-alpha-16
Outline: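 Cyno-CHO cells stably co-expressing recombinant CXCR3 and G-alpha-16, loaded with Ca-4 dye (HBSS, 10 mM HEPES pH 7.4, 2 mM probenecid) for 1 h at 37 °C. Compound (10 microM final) preincubated 15 min at room temperature, then IP-10 added at EC80. Intracellular calcium flux read by fluorescence (ex 480/em 540 nm).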

Sequence of CXCR3 (A0A2K5UV19 entry or part of it): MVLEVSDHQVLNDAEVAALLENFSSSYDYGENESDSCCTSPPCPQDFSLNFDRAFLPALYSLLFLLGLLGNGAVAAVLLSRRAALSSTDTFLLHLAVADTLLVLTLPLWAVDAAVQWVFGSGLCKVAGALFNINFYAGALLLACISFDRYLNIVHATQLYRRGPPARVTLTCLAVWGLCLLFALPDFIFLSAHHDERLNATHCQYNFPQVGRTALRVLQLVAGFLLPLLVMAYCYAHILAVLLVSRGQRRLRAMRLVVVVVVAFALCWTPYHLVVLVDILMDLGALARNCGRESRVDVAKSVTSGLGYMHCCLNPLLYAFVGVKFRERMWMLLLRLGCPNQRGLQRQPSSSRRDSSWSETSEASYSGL

| SMILES | atherosclerotic lesion formation [1] | IC50 (CXCR3) [nM] |
| --- | --- | --- |
| CCOc1ccc(-n2c(C(C)N(Cc3cccnc3)C(=O)Cc3ccc(F)c(C(F)(F)F)c3)nc3ncccc3c2=O)cc1 (centres unmarked) [NBI-74330] | significantly attenuated atherosclerotic lesion formation |  |
| Cc1cc(NC(=O)c2ccccc2N2CCN(C(=O)Cn3nc(C)cc3C)CC2)ccn1 [2-{4-[2-(3,5-Dimethyl-pyrazol-1-yl)-acetyl]-piperazin-1-yl}-N-(2-methyl-pyridin-4-yl)-benzamide] |  | 12.5 |
| COc1ccc(C(=O)NCC(=O)N2CCN(c3ncc(Cl)cc3NC(=O)c3cccc(C(F)(F)F)c3)CC2)cc1OC [N-(2-{4-[5-Chloro-3-(3-trifluoromethyl-benzoylamino)-pyridin-2-yl]-piperazin-1-yl}-2-oxo-ethyl)-3,4-dimethoxy-benzamide] |  | 8.8 |
| Cc1cc(C)n(CC(=O)N2CCN(c3ccccc3C(=O)Nc3cc(C(F)(F)F)no3)CC2)n1 [2-{4-[2-(3,5-Dimethyl-pyrazol-1-yl)-acetyl]-piperazin-1-yl}-N-(3-trifluoromethyl-isoxazol-5-yl)-benzamide] |  | 5.1 |
| Cc1cc(C)n(CC(=O)N2CCN(c3ccccc3C(=O)Nc3cc(C(C)(C)C)ns3)CC2)n1 [N-(3-tert-Butyl-isothiazol-5-yl)-2-{4-[2-(3,5-dimethyl-pyrazol-1-yl)-acetyl]-piperazin-1-yl}-benzamide] |  | 10 |
| Cc1cc(C)n(CC(=O)N2CCN(c3ccccc3C(=O)Nc3nccs3)CC2)n1 [2-{4-[2-(3,5-Dimethyl-pyrazol-1-yl)-acetyl]-piperazin-1-yl}-N-thiazol-2-yl-benzamide] |  | 13 |
| COc1cc(NC(=O)c2ccccc2N2CCN(C(=O)CN3CCCCC3=O)CC2)ccn1 [N-(2-Methoxy-pyridin-4-yl)-2-{4-[2-(2-oxo-piperidin-1-yl)-acetyl]-piperazin-1-yl}-benzamide] |  | 4.4 |
| Cc1cc(C)n(CC(=O)N2CCN(c3ccccc3C(=O)Nc3cncc(Cl)c3)CC2)n1 [N-(5-Chloro-pyridin-3-yl)-2-{4-[2-(3,5-dimethyl-pyrazol-1-yl)-acetyl]-piperazin-1-yl}-benzamide] |  | 7.6 |
| Cc1nn(CC(=O)N2CCN(c3ccccc3C(=O)Nc3ccncc3)CC2)c(=O)c2ccccc12 [2-{4-[2-(4-Methyl-1-oxo-1H-phthalazin-2-yl)-acetyl]-piperazin-1-yl}-N-pyridin-4-yl-benzamide] |  | 5.4 |
| Cc1cc(C)n(CC(=O)N2CCN(c3ccccc3C(=O)Nc3cccc(C(F)(F)F)c3)CC2)n1 [2-{4-[2-(3,5-Dimethyl-pyrazol-1-yl)-acetyl]-piperazin-1-yl}-N-(3-trifluoromethyl-phenyl)-benzamide] |  | 8 |
| Cc1cc(C)n(CC(=O)N2CCN(c3ccccc3C(=O)Nc3cncc(O)c3)CC2)n1 [2-{4-[2-(3,5-Dimethyl-pyrazol-1-yl)-acetyl]-piperazin-1-yl}-N-(5-hydroxy-pyridin-3-yl)-benzamide] |  | 12.5 |
| COc1ccc(C(=O)NCC(=O)N2CCN(c3ccccc3C(=O)Nc3ccncc3)CC2)cc1F [3-Fluoro-4-methoxy-N-(2-oxo-2-{4-[2-(pyridin-4-ylcarbamoyl)-phenyl]-piperazin-1-yl}-ethyl)-benzamide] |  | 4.2 |
| Cc1nn(CC(=O)N2CCCN(c3ncc(Cl)cc3NC(=O)c3cccc(Cl)c3)CC2)c(C)c1Cl [3-Chloro-N-(5-chloro-2-{4-[2-(4-chloro-3,5-dimethyl-pyrazol-1-yl)-acetyl]-[1,4]diazepan-1-yl}-pyridin-3-yl)-benzamide] |  | 15 |
| Cc1cc(C)n(CC(=O)N2CCN(c3ccccc3C(=O)Nc3cncc(F)c3)CC2)n1 [2-{4-[2-(3,5-Dimethyl-pyrazol-1-yl)-acetyl]-piperazin-1-yl}-N-(5-fluoro-pyridin-3-yl)-benzamide] |  | 10.8 |
| COc1cc(NC(=O)c2ccccc2N2CCN(C(=O)Cn3nc(C)cc3C)CC2)ccn1 [2-{4-[2-(3,5-Dimethyl-pyrazol-1-yl)-acetyl]-piperazin-1-yl}-N-(2-methoxy-pyridin-4-yl)-benzamide] |  | 8.5 |
| Cc1nc(C)c(CC(=O)N2CCN(c3ccccc3C(=O)Nc3ccncc3)CC2)s1 [2-{4-[2-(2,4-Dimethyl-thiazol-5-yl)-acetyl]-piperazin-1-yl}-N-pyridin-4-yl-benzamide] |  | 13 |
| Cc1cc(C)n(CC(=O)N2CCN(c3ccccc3C(=O)Nc3cccc(S(C)(=O)=O)c3)CC2)n1 [2-{4-[2-(3,5-Dimethyl-pyrazol-1-yl)-acetyl]-piperazin-1-yl}-N-(3-methanesulfonyl-phenyl)-benzamide] |  | 19 |
| Cc1cc(C)n(CC(=O)N2CCN(c3ccccc3NC(=O)c3ccc(Cl)nc3)CC2)n1 [6-Chloro-N-(2-{4-[2-(3,5-dimethyl-pyrazol-1-yl)-acetyl]-piperazin-1-yl}-phenyl)-nicotinamide] |  | 15 |

| SMILES | atherosclerotic lesion formation [1] | IC50 (CXCR3) [nM] |
| --- | --- | --- |
| Cc1cc(C)n(CC(=O)N2CCN(c3ccccc3NC(=O)c3ccccc3)CC2)n1 [N-(2-{4-[2-(3,5-Dimethyl-pyrazol-1-yl)-acetyl]-piperazin-1-yl}-phenyl)-benzamide] |  | 6.6 |
| O=C(Nc1cccnc1)c1ccccc1N1CCN(C(=O)CN2CCc3cccnc32)CC1 [2-[4-(2-2,3-Dihydro-pyrrolo[2,3-b]pyridin-1-yl-acetyl)-piperazin-1-yl]-N-pyridin-3-yl-benzamide] |  | 10 |
| Cc1ccc(NC(=O)c2ccccc2N2CCN(C(=O)Cn3nc(C)cc3C)CC2)cn1 [2-{4-[2-(3,5-Dimethyl-pyrazol-1-yl)-acetyl]-piperazin-1-yl}-N-(6-methyl-pyridin-3-yl)-benzamide] |  | 5.3 |
| CCn1nc(C)cc1C(=O)NCC(=O)N1CCN(c2ccccc2C(=O)Nc2cccnc2)CC1 [2-Ethyl-5-methyl-2H-pyrazole-3-carboxylic acid (2-oxo-2-{4-[2-(pyridin-3-ylcarbamoyl)-phenyl]-piperazin-1-yl}-ethyl)-amide] |  | 18 |
| Cc1cc(C)n(CC(=O)N2CCN(c3ccccc3C(=O)Nc3cc(C(C)(C)C)no3)CC2)n1 [N-(3-tert-Butyl-isoxazol-5-yl)-2-{4-[2-(3,5-dimethyl-pyrazol-1-yl)-acetyl]-piperazin-1-yl}-benzamide] |  | 8.9 |
| Cc1cc(C)n(CC(=O)N2CCN(c3ccccc3C(=O)Nc3ccc(S(C)(=O)=O)cc3)CC2)n1 [2-{4-[2-(3,5-Dimethyl-pyrazol-1-yl)-acetyl]-piperazin-1-yl}-N-(4-methanesulfonyl-phenyl)-benzamide] |  | 8.8 |
| Cc1nn(CC(=O)N2CCN(c3ncc(Cl)cc3NC(=O)c3cccc(C(F)(F)F)c3)CC2)c(C)c1Cl |  | 7.2 |
| COc1cc(NC(=O)c2ccccc2N2CCN(C(=O)CN3CCCCC3=O)[C@@H](C)C2)ccn1 [N-(2-Methoxy-pyridin-4-yl)-2-{(S)-3-methyl-4-[2-(2-oxo-piperidin-1-yl)-acetyl]-piperazin-1-yl}-benzamide] |  | 13 |
| Cn1c(=O)n(CC(=O)N2CCN(c3ccccc3C(=O)Nc3ccncc3)CC2)c2ccccc21 [2-{4-[2-(3-Methyl-2-oxo-2,3-dihydro-benzoimidazol-1-yl)-acetyl]-piperazin-1-yl}-N-pyridin-4-yl-benzamide] |  | 4 |
| O=C(Nc1cncc(F)c1)c1ccccc1N1CCN(C(=O)Cn2ccc3ccncc32)CC1 [N-(5-Fluoro-pyridin-3-yl)-2-[4-(2-pyrrolo[2,3-c]pyridin-1-yl-acetyl)-piperazin-1-yl]-benzamide] |  | 1.3 |
| COc1ccc(NC(=O)c2ccccc2N2CCN(C(=O)Cn3ccc4cccnc43)CC2)cn1 [N-(6-Methoxy-pyridin-3-yl)-2-[4-(2-pyrrolo[2,3-b]pyridin-1-yl-acetyl)-piperazin-1-yl]-benzamide] |  | 5.7 |
| O=C(Nc1ccncc1)c1ccccc1N1CCN(C(=O)CN2CCCCC2=O)CC1 [2-{4-[2-(2-Oxo-piperidin-1-yl)-acetyl]-piperazin-1-yl}-N-pyridin-4-yl-benzamide] |  | 7.4 |
| Cc1cc(C)n(CC(=O)N2CCN(c3ccccc3C(=O)Nc3ccc(C(F)(F)F)cc3)CC2)n1 [2-{4-[2-(3,5-Dimethyl-pyrazol-1-yl)-acetyl]-piperazin-1-yl}-N-(4-trifluoromethyl-phenyl)-benzamide] |  | 4.2 |
| Cc1cc(C)n(CC(=O)N2CCN(c3ccccc3C(=O)Nc3nc(-c4cccnc4)cs3)CC2)n1 [2-{4-[2-(3,5-Dimethyl-pyrazol-1-yl)-acetyl]-piperazin-1-yl}-N-(4-pyridin-3-yl-thiazol-2-yl)-benzamide] |  | 20 |
| Cc1cc(C)n(CC(=O)N2CCN(c3ccccc3C(=O)Nc3nc4c(Cl)cccc4s3)CC2)n1 [N-(4-Chloro-benzothiazol-2-yl)-2-{4-[2-(3,5-dimethyl-pyrazol-1-yl)-acetyl]-piperazin-1-yl}-benzamide] |  | 13 |
| Cc1cc(C)n(CC(=O)N2CCN(c3ccc(Cl)cc3C(=O)Nc3nc4c(s3)CN(C)CC4)CC2)n1 [5-Chloro-2-{4-[2-(3,5-dimethyl-pyrazol-1-yl)-acetyl]-piperazin-1-yl}-N-(5-methyl-4,5,6,7-tetrahydro-thiazolo[5,4-c]pyridin-2-yl)-benzamide] |  | 15 |
| Cc1cc(C)n(CC(=O)N2CCN(c3ccccc3C(=O)Nc3nc4c(s3)CCCC4)CC2)n1 [2-{4-[2-(3,5-Dimethyl-pyrazol-1-yl)-acetyl]-piperazin-1-yl}-N-(4,5,6,7-tetrahydro-benzothiazol-2-yl)-benzamide] |  | 12 |
